From patent publication US6503912B1, “Substituted guanidine derivatives” (Bayer Aktiengesellschaft, priority 1998, dated 2003)

Experiment: logP determination by HPLC (EEC directive 79/831 Annex V. A8)
Conditions: HPLC gradient method, acetonitrile/0.1% aqueous phosphoric acid
Protocol: [logP=The logP values were determined in accordance with EEC directive 79/831 Annex V. A8 by HPLC (gradient method, acetonitrile/0.1% aqueous phosphoric acid]

**Q.** With `O=C(OCN1CCN(Cc2ccc(Cl)nc2)C1=N[N+](=O)[O-])C1CC1` [Example 59] as the compound, how does the “logP (pH = 2.3)” value read?
**A.** 1.57
